Data taken from PMC10952433, “A Chemoenzymatic Approach To Produce a Cyclic Analogue of the Analgesic Drug MVIIA (Ziconotide)” (Angewandte Chemie (International Ed. in English), 2023).

Tests used:
CaV2.2 [1] = target: T1, CaV2.2 (Homo sapiens, UniProt Q00975)
CaV2.2 [2] = target: T1, CaV2.2; assay: cell-based

T1 sequence (Q00975 whole entry, looked up): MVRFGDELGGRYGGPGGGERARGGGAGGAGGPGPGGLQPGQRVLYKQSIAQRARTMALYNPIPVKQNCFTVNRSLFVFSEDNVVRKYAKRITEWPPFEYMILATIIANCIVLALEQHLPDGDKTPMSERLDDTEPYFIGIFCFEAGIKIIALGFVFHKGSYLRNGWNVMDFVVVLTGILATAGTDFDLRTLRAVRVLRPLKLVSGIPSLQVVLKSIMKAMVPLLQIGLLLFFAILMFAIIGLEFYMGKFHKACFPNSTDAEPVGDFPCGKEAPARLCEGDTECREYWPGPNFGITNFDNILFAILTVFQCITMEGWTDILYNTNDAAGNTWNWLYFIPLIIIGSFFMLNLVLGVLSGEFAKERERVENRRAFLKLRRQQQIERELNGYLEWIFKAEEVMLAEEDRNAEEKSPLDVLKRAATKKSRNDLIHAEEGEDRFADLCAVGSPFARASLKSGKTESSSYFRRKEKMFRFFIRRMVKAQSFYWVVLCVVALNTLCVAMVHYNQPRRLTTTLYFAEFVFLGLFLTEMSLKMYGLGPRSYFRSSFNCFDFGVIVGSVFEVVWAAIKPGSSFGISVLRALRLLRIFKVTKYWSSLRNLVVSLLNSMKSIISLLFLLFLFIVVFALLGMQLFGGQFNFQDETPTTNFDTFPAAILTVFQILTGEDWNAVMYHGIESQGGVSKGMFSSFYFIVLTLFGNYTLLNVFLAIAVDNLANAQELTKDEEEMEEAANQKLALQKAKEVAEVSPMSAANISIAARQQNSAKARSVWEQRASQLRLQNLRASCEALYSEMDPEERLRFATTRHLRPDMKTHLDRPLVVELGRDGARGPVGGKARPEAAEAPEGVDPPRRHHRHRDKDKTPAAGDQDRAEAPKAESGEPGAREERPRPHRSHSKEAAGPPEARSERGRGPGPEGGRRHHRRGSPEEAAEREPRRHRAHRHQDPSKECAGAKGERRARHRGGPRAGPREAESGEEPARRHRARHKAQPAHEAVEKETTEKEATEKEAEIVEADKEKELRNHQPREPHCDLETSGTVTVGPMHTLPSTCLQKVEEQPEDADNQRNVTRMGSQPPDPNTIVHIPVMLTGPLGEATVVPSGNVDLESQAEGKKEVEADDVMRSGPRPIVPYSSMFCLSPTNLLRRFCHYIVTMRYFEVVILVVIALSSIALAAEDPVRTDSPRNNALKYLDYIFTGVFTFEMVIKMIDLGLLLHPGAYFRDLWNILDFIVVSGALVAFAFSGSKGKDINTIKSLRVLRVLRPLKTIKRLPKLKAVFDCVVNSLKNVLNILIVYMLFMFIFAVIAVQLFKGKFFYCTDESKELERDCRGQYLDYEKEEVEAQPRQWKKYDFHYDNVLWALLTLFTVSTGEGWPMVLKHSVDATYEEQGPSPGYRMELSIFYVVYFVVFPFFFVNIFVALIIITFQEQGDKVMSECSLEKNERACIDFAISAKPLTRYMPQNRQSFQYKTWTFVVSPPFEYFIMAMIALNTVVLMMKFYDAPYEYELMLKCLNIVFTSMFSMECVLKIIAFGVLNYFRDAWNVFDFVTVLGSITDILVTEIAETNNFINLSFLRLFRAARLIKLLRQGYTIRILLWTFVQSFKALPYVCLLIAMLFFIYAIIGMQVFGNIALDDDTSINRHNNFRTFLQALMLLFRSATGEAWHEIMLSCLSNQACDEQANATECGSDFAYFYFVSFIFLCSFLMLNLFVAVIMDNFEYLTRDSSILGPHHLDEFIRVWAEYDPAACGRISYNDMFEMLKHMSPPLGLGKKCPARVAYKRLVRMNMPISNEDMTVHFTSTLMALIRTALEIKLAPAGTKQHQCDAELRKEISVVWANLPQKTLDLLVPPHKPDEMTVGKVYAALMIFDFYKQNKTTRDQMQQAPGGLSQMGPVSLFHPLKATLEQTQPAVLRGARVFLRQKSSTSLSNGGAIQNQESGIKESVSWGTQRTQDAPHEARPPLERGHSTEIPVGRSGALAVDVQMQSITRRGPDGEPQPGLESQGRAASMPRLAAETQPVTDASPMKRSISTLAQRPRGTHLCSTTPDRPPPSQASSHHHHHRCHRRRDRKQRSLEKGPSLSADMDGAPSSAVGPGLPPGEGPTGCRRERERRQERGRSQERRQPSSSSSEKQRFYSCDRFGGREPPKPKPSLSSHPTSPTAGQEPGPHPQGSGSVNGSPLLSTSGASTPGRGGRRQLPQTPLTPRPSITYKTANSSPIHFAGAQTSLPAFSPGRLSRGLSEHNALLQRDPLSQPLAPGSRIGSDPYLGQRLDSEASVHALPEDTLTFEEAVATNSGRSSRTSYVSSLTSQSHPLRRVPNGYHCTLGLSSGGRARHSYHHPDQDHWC

SMILES: CCCC[C@@H]1NC(=O)[C@H](CC(C)C)NC(=O)[C@H](CCCNC(=N)N)NC(=O)[C@H](CO)NC(=O)[C@@H]2CSSC[C@@H]3NC(=O)[C@H](CO)NC(=O)CNC(=O)[C@H]([C@@H](C)O)NC(=O)[C@H](CSSC[C@H](NC(=O)[C@H](C)NC(=O)CNC(=O)CN)C(=O)N[C@@H](CCCCN)C(=O)NCC(=O)N[C@@H](CCCCN)C(=O)NCC(=O)N[C@@H](C)C(=O)N[C@@H](CCCCN)C(=O)N2)NC(=O)[C@H](CSSC[C@@H](C(=O)N[C@@H](C)C(=O)NCC(=O)N[C@@H](CC(N)=O)C(=O)NCC(=O)N[C@@H](CC(C)C)C(=O)O)NC(=O)[C@H](CCCCN)NC(=O)CNC(=O)[C@H](CO)NC(=O)[C@H](CCCNC(=N)N)NC3=O)NC(=O)[C@H](CC(=O)O)NC(=O)[C@H](Cc2ccc(O)cc2)NC1=O [M-6]
- LogEC50 (CaV2.2 [1]): -7.2
- EC50 (CaV2.2 [2]): 67.8 nM

SMILES: CCCC[C@@H]1NC(=O)[C@H](CC(C)C)NC(=O)[C@H](CCCNC(=N)N)NC(=O)[C@H](CO)NC(=O)[C@@H]2CSSC[C@@H]3NC(=O)[C@H](CO)NC(=O)CNC(=O)[C@H]([C@@H](C)O)NC(=O)[C@H](CSSC[C@H](NC(=O)[C@H](C)NC(=O)[C@H](C)NC(=O)CNC(=O)CN)C(=O)N[C@@H](CCCCN)C(=O)NCC(=O)N[C@@H](CCCCN)C(=O)NCC(=O)N[C@@H](C)C(=O)N[C@@H](CCCCN)C(=O)N2)NC(=O)[C@H](CSSC[C@@H](C(=O)N[C@@H](C)C(=O)NCC(=O)N[C@@H](CC(N)=O)C(=O)NCC(=O)N[C@@H](CC(C)C)C(=O)O)NC(=O)[C@H](CCCCN)NC(=O)CNC(=O)[C@H](CO)NC(=O)[C@H](CCCNC(=N)N)NC3=O)NC(=O)[C@H](CC(=O)O)NC(=O)[C@H](Cc2ccc(O)cc2)NC1=O [M-7]
- LogEC50 (CaV2.2 [1]): -7.3
- EC50 (CaV2.2 [2]): 55.5 nM

SMILES: CCCC[C@@H]1NC(=O)[C@H](CC(C)C)NC(=O)[C@H](CCCNC(=N)N)NC(=O)[C@H](CO)NC(=O)[C@@H]2CSSC[C@@H]3NC(=O)[C@H](CO)NC(=O)CNC(=O)[C@H]([C@@H](C)O)NC(=O)[C@H](CSSC[C@H](NC(=O)[C@H](C)NC(=O)[C@H](C)NC(=O)CNC(=O)CN)C(=O)N[C@@H](CCCCN)C(=O)NCC(=O)N[C@@H](CCCCN)C(=O)NCC(=O)N[C@@H](C)C(=O)N[C@@H](CCCCN)C(=O)N2)NC(=O)[C@H](CSSC[C@@H](C(=O)N[C@@H](C)C(=O)NCC(=O)NCC(=O)N[C@@H](CC(N)=O)C(=O)NCC(=O)N[C@@H](CC(C)C)C(=O)O)NC(=O)[C@H](CCCCN)NC(=O)CNC(=O)[C@H](CO)NC(=O)[C@H](CCCNC(=N)N)NC3=O)NC(=O)[C@H](CC(=O)O)NC(=O)[C@H](Cc2ccc(O)cc2)NC1=O [M-8]
- LogEC50 (CaV2.2 [1]): -7.1
- EC50 (CaV2.2 [2]): 78.7 nM

SMILES: CCCC[C@@H]1NC(=O)[C@H](CC(C)C)NC(=O)[C@H](CCCNC(=N)N)NC(=O)[C@H](CO)NC(=O)[C@@H]2CSSC[C@@H]3NC(=O)[C@H](CO)NC(=O)CNC(=O)[C@H]([C@@H](C)O)NC(=O)[C@H](CSSC[C@H](NC(=O)[C@H](C)NC(=O)[C@H](C)NC(=O)CNC(=O)CN)C(=O)N[C@@H](CCCCN)C(=O)NCC(=O)N[C@@H](CCCCN)C(=O)NCC(=O)N[C@@H](C)C(=O)N[C@@H](CCCCN)C(=O)N2)NC(=O)[C@H](CSSC[C@@H](C(=O)N[C@@H](C)C(=O)N[C@@H](C)C(=O)NCC(=O)NCC(=O)N[C@@H](CC(N)=O)C(=O)NCC(=O)N[C@@H](CC(C)C)C(=O)O)NC(=O)[C@H](CCCCN)NC(=O)CNC(=O)[C@H](CO)NC(=O)[C@H](CCCNC(=N)N)NC3=O)NC(=O)[C@H](CC(=O)O)NC(=O)[C@H](Cc2ccc(O)cc2)NC1=O [M-9]
- LogEC50 (CaV2.2 [1]): -7.5
- EC50 (CaV2.2 [2]): 31.9 nM
- IC50 (CaV2.2 [2]): 31.9 ± 2.6 nM
